Key:
[1] = Rates of photorelease from decay of the aci-nitro anions after photolysis; format: physicochemical
Protocol: The decay of aci-nitro intermediates was monitored at 402 nm or 418 nm with an Osram 50-W tungsten halogen lamp following excitation at 355 nm with a 55 mJ 8-ns pulse. Samples were prepared with 50 mM phosphate buffer, pH 7.0 or pH 6.0. […] Kinetic analysis was made by nonlinear, least-squares computer iteration. The averages of three trials are reported.

[2] = target: T1, IDH, isocitrate dehydrogenase (Escherichia coli) (Escherichia coli, UniProt P08200); test: Crystallographic analysis of caged compounds soaked into IDH crystals; format: binding; conditions: 250 mM soak
T1 construct: made in house
T1 sequence (P08200 whole entry): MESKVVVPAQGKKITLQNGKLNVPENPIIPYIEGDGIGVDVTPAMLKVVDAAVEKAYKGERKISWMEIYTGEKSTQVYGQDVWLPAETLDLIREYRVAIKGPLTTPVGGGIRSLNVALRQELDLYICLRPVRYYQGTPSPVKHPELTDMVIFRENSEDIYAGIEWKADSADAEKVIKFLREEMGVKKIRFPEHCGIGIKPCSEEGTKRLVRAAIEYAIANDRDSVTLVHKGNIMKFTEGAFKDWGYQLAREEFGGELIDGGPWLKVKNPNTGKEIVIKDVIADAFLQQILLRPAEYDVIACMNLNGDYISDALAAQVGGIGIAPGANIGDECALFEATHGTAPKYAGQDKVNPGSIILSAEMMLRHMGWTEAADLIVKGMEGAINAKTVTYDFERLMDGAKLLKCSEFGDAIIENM
From the text: IDH was purified and crystallized as described previously by Reeves, H. C., Daumy, G. O., Lin, C. C., and Houston, M. (1972) Biochim. Biophys. Acta 258, 27-39; LaPorte, D. C., Thorsness, P. E., and Koshland, D. E., Jr. (1985) J. Biol. Chem. 260, 10563-10568; Hurley, J. H., Thorsness, P. E., Ramalingam, V., Helmers, N. H., Koshland, D. E., Jr., and Stroud, R. M. (1989) Proc. Natl. Acad. Sci. U.S.A 86, 8635-8639; and Stoddard, B. L., Dean, A., and Koshland, D. E., Jr. (1993) Biochemistry 32, 9310-9316.
The crystals were 0.5 to 1.5 mm along their longest edges, with a shorter third dimension of 0.2 to 0.3 mm; the crystals belong to space group P43 21 2. The unit cell dimensions prior to photolysis and after binding liberated substrate consistently refined to values within 0.5% of the previously published lengths during data processing.
A total of six crystallographic data sets were collected for this study. The structure of the enzyme was determined prior to photolysis after soaking with each compound, both in the presence and absence of bound isocitrate/Mg^+2. The structure of the bound photolysis product was also determined for both caged compounds in the absence of isocitrate/Mg^+2.
For each experiment, a crystal was transferred to 0.5 mL of a stabilization solution (generally 10% higher ammonium sulfate than that used to grow the crystals, buffered at pH 7.0 with HEPES) and soaked overnight in the dark with 250 mM of either 1 or 3. These experiments were performed for each compound in the presence and absence of 50 mM isocitrate and MgSO4. To protect the crystal from oxidative degradation after photolysis by the nitroso photoproducts, β-mercaptoethanol (10 mM) and DTT (10 mM) were also added to the mother liquor. The crystals were mounted under safe-light in quartz capillaries with mother liquor at either end of the capillary. The mount was sealed with mineral oil and paraffin wax. Initial data were collected at room temperature in the dark on an RAXIS imaging plate area detector with a Rigaku RU-200 rotating anode X-ray generator operating at 50 kV, 80 mA. A complete data set was collected from each crystal to 2.5 Å resolution using 20 1.5° rotations at 30 minutes per frame, followed by an additional 10 frames collected with the crystal on a 45° jig (Molecular Structure Corporation) for completeness. The total decay in X-ray intensities during collection of each of these four dark data sets was less than 5% of the initial structure average factor amplitudes.
Crystals that were soaked in caged 1 or 3 in the absence of isocitrate were each irradiated after the dark data collection, using a two minute exposure with a Cole Parmer 9741-50 quartz halogen light source with a 9741-03 high intensity 150 watt bulb and dual fiber optic light pipes and focusing lenses. […]

[3] = target: T1, IDH, isocitrate dehydrogenase (Escherichia coli); test: Turnover check by absorbance analysis of dissolved IDH crystals after extensive soaks; format: biochemical; conditions: crystals soaked in presence of bound isocitrate/Mg+2
From the text: The nicotinamide ring, its ribose sugar, and the first backbone phosphate are all completely disordered. […] The presence of the caging group on the carboxyamide nitrogen sterically prevents hydride transfer. […] After photolysis in the absence of isocitrate, liberated NADP 1002 is still bound to the active site as previously determined for unmodified NADP, as shown in FIG. C. The clear advantage of this compound as a photolytic trigger for time-resolved studies is that it is bound to the enzyme active site prior to photolysis, so that no additional diffusion or binding events are necessary to form the Michaelis complex.

[4] = 10 mM DTT, monitored at 418 nm, double exponential fit
[5] = absence of bound isocitrate/Mg+2, dark
[6] = presence of bound isocitrate/Mg+2, dark

Compound | aci-nitro transient decay rate, fast component [1, 4] [s⁻¹] | aci-nitro transient decay rate, slow component [1, 4] [s⁻¹] | aci-nitro transient decay rate, fast component ([1]; 100 mM DTT, 418 nm) [s⁻¹] | aci-nitro transient decay rate, slow component ([1]; 100 mM DTT, 418 nm) [s⁻¹] | binding to IDH active site before photolysis [2, 5] | binding to IDH active site before photolysis [2, 6] | first-order decay rate k of transient (rate of photorelease) ([1]; 50 mM phosphate buffer, pH 7.0) [s⁻¹] | rate of photorelease ([1]; sample pH 6) [s⁻¹] | IDH turnover with caged cofactor before photolysis [3] | fast decay component ([1]; DTT concentration not stated) [s⁻¹]
COc1cc(C(C)OP(=O)(O)O[C@@H]2[C@H](O)[C@@H](COP(=O)(O)OP(=O)([O-])OC[C@H]3O[C@@H]([n+]4cccc(C(N)=O)c4)[C@H](O)[C@@H]3O)O[C@H]2n2cnc3c(N)ncnc32)c([N+](=O)[O-])cc1OC (stereo partly drawn) [compound 1, P^2' -[1-(4,5-Dimethoxy-2-nitrophenyl)ethyl]nicotinamide adenine dinucleotide phosphate] | 13000 | 93 | 18000 | 480 | fails to bind | fails to bind |  |  |  | 
Nc1ncnc2c1ncn2[C@@H]1O[C@H](COP(=O)(O)OP(=O)([O-])OC[C@H]2O[C@@H]([n+]3cccc(C(=O)NC(C(=O)O)c4ccccc4[N+](=O)[O-])c3)[C@H](O)[C@@H]2O)[C@@H](O)[C@H]1OP(=O)(O)O (stereo partly drawn) [compound 3, N-(α-Carboxy-2-nitrobenzyl)-nicotinamide adenine dinucleotide phosphate] |  |  |  |  | binds to the enzyme | both backbone phosphates of the caged cofactor are well ordered | 30 | 42 | turnover does not occur | 
P-[1-(4,5-Dimethoxy-2-nitrophenyl)ethyl] nicotinamide adenine dinucleotide [compound 2] |  |  |  |  |  |  |  |  |  | 17000

Reference: patent US6020480A, “Caged NADP and NAD” (The Regents of the University of California, priority 1997, dated 2000)
